These results are taken from patent publication US20180353501A1 (Arvinas, Inc., priority 2017, published 2018).

The structures appear in SMILES notation.

For one assay, the target named is T1, FLAG-p38δ (Homo sapiens, UniProt O15264).
T1 construct: expressed in transfected cells; host or cells: HeLa cells, transient transfection with Lipofectamine 2000
T1 sequence (O15264 1-365): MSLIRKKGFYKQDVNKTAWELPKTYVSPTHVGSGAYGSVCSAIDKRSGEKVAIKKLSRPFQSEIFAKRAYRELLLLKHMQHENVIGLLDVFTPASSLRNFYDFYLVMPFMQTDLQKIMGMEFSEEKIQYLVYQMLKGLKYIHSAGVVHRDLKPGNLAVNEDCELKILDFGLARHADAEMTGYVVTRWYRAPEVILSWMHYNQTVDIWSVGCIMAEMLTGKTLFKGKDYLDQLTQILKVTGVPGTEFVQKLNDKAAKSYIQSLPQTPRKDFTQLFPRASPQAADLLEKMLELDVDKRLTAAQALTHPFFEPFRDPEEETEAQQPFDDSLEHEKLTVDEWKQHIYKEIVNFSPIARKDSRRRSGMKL
The assay can be described thus: TUBE1 immunoprecipitation of polyubiquitinated p38δ, HeLa cells. The format is cell-based. The note with it: 1 μM, 3 hours. Here is the method:
FIG. 18. Exemplary compound 46 induces polyubiquitination of p38δ. (A) HeLa cells were co-transfected with HA-Ub and FLAG p38δ and treated with vehicle (DMSO), 1 μM of compound 50, or 1 μM of compound 46 for 3 hours. Lysates were immunoprecipitated with tandem ubiquitin binding entity (TUBE1) agarose beads and assessed by western blots detecting FLAG (p38δ). TUBE1 binds tetra ubiquitin chains with high affinity, thereby enriching for polyubiquitinated proteins. In this assay, HA (Ub) serves as an immunoprecipitation control for poly-Ub TUBE1 enrichment.
Based on these exemplary compound 50-induced and exemplary compound 46-induced ternary complex affinity differences, both in vitro and in cells, whether they were predictive of PROTAC-induced p38δ cellular ubiquitination was examined.
TUBE1 immunoprecipitation experiments were carried out exactly as described above, except for the fact that 1 mg of normalized HeLa lysate was loaded onto 20 μL TUBE1 agarose (LifeSensors) resin per sample.

Another assay addresses T2, MAK (Homo sapiens, UniProt P20794).
T2 construct: purchased DiscoverRx Corporation (KINOMEscan platform, service)
The assay can be described thus: KINOMEscan in vitro kinase binding. To be noted: screened at 1000 nM; lower number = stronger binding. The procedure:
In Vitro Kinase Binding Affinity Determination for Example 1 and Example 2.
(§1) PROTAC in vitro binding affinities (Kd) to c-Met was determined using the KINOMEscan™ platform (DiscoverRx Corporation). The compounds were solubilized in DMSO and sent to DiscoverRx Corporation as 10 μM stock solutions.
Example 1 and Example 2 were screened at a 1000 nM concentration, and the results of the binding interactions are reported in “% Ctrl”, where a lower number indicates stronger binding. % Ctrl=[(test compound signal−positive control signal)/(negative control signal−positive control signal)]×100, wherein the negative control was DMSO.

A further assay deals with T3, MET (Homo sapiens, UniProt P08581).
T3 construct: purchased DiscoverRx Corporation (KINOMEscan platform, service)
Description: KINOMEscan in vitro kinase binding. To be noted: screened at 1000 nM. Here is the method: as §1

The target of another assay is T4, MET (Y1235D) (Homo sapiens, UniProt P08581, Y1235D).
T4 construct: purchased DiscoverRx Corporation (KINOMEscan platform, service)
Description: KINOMEscan in vitro kinase binding. The note with it: screened at 1000 nM; lower number = stronger binding. Here is the method: as §1

A further assay concerns the target T5, MET (M1250T) (Homo sapiens, UniProt P08581, M1250T).
T5 construct: purchased DiscoverRx Corporation (KINOMEscan platform, service)
Description: KINOMEscan in vitro kinase binding. To be noted: screened at 1000 nM; lower number = stronger binding. The procedure:
as §1

A further assay deals with T6, cMET (Homo sapiens, UniProt P08581).
T6 construct: endogenous in cells; host or cells: MDA-MB-231
The assay can be described thus: Western blot examination of protein degradation, MDA-MB-231 cells. Type of assay: cell-based. The note with it: 24 hours. Here is the method:
FIG. 4. Illustrates the degradation of Met by exemplary VHL (Examples 1 and 6) and cereblon (Examples 2 and 8) PROTACS.
Western Blot Examination of Protein Degradation.
MDA-MB-231 cells (1-1.5×10^6) were treated for 24 hours with the indicated compounds solubilized in DMSO. The cells were collected at 300 g for 3 minutes. The cells were then lysed in lysis buffer (25 mM Tris, 1% Triton, 0.25% deoxycholic acid) with Roche protease inhibitor complete cocktail and phosphatase inhibitors (10 mM sodium fluoride, 10 mM sodium pyrophosphate, 1 mM sodium orthovanadate and 20 mM β-glycerophosphate). The total protein concentrations were determined by Pierce BCA Protein Assay and 30-50 μg of protein was loaded onto 10% Tris-Glycine gels. After standard gel electrophoresis, the separated proteins were transferred to nitrocellulose by wet transfer. The immunoblots were then processed by standard procedures and incubated with the respective antibodies. Band intensities were quantified by Bio-Rad's Image Lab software.
Background: A western blot detects proteins with antibodies after separation by electrophoresis.

T2 sequence (P20794 whole entry): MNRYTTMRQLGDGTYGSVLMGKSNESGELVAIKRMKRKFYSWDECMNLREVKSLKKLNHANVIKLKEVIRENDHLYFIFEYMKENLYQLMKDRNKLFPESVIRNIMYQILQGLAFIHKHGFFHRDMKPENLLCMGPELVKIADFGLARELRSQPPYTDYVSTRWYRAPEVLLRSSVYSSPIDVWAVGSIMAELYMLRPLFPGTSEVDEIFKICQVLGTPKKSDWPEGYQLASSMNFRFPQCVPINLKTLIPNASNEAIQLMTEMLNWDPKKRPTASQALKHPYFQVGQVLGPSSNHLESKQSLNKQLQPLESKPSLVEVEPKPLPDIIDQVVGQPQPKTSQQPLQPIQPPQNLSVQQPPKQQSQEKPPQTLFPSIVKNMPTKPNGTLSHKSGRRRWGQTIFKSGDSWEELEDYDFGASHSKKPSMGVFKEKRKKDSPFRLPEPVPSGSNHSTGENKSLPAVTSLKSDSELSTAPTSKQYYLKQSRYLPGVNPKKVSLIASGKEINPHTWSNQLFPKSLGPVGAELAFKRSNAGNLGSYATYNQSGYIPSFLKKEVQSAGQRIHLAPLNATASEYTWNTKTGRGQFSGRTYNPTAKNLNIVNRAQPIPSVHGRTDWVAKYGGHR

On to `COc1cc2c(Oc3ccc(NC(=O)C4(C(=O)Nc5ccc(F)cc5)CC4)cc3F)ccnc2cc1OCCOCCOCCOc1cc(-c2scnc2C)ccc1CNC(=O)[C@@H]1C[C@@H](O)CN1C(=O)[C@H](C(C)C)N1Cc2ccccc2C1=O` [compound 46], for which, at FLAG-p38δ, the “TUBE1-reactivity (poly-Ub p38δ)” value was “increased TUBE1-reactivity”.
For the compound `COc1cc2c(Oc3ccc(NC(=O)C4(C(=O)Nc5ccc(F)cc5)CC4)cc3F)ccnc2cc1OCCCOCCCOCCC(=O)N[C@H](C(=O)N1C[C@H](O)C[C@H]1C(=O)NCc1ccc(-c2scnc2C)cc1)C(C)(C)C` [Example 1], the “% Ctrl” value is listed as 92 % Ctrl on MAK, 0.75 % Ctrl at MET (lower number = stronger binding), 8.2 % Ctrl on MET (Y1235D) and 6.0 % Ctrl at MET (M1250T). Also, on MET, the “binding to MET (in words)” value is “strong binding to MET”. Moreover, the “degradation of c-Met (western blot)” value at cMET was “significant protein degradation of c-Met”.
